Entries after “also recorded” stand apart in the source; their conditions may differ.
Experiments:
[1] = literature references; cited from earlier work
peripheral leukocytes [2] = experiment: γ-H2AX immunofluorescence, DSS colitis; format: in vivo, mouse
Text: (§1) Immunofluorescence. […] Samples were then processed on coverslips essentially as described elsewhere (26).

erythroblasts = experiment: In vivo micronucleus assay in Atm−/−, Atm+/− and wildtype mice with DSS colitis; design: species or system mouse; conditions: all genotypes, more severe in Atm−/−
Method: In vivo micronucleus assay. […] At least 4000 mature erythrocytes were counted per animal, and the frequency of MN formation was calculated as the number of micronucleated erythrocytes per 1000 normochromatic erythrocytes.

peripheral leukocytes [3] = experiment: 8-oxoguanine and nitrotyrosine immunofluorescence, DSS colitis; format: in vivo, mouse; conditions: DSS 7 days, 3% w/v; p<0.01
Text: as §1
8-oxoguanine is an oxidative DNA lesion formed by reaction of hydroxyl radicals, metal hyrdroperoxides, or peroxynitrite with DNA, causing G:C to T:A transversions during replication (33). Nitrotyrosine is a biochemical marker for NO-induced peroxynitrite formation involving reactions with reactive oxygen and nitrogen species resulting in nitrative damage to proteins (34).

mice = experiment: Disease activity index in DSS-induced experimental colitis; format: in vivo
Method: Induction of chemical colitis. […] Acute colitis was defined as a 7 day treatment, and chronic colitis as any further treatment including remission periods. Control animals received sterile acidified water only. Symptoms (weight loss, stool consistency, gross bleeding) were recorded daily for calculation of disease activity index (23).
Evaluation of Experimental Colitis. The disease activity index (DAI) is the average combined score of weight loss (0-4), stool consistency (0-4), and bleeding (0-4), used to score clinical symptoms (23).

peripheral blood T-cells = experiment: Flow cytometry of activated T-cells (CD69, CD44) in peripheral blood, DSS colitis; format: in vivo, mouse; conditions: in response to DSS treatment
Text: Flow Cytometry. T cell populations were characterized for activation status (CD69 and CD44) and CD4 or CD8α expression using flow cytometry. Erythrocytes were immediately lysed with BD PharmLyse Lysis Buffer (BD Biosciences, San Diego, Calif.). After washing with Stain Buffer with 0.2% BSA (BD), cells were stained with FITC conjugated Hamster Anti-Mouse CD69, FITC conjugated Rat Anti-Mouse/Human CD44, R-PE conjugated Rat Anti-Mouse CD4, PerCP Rat Anti-Mouse CD8α, or appropriate negative isotype controls (BD Biosciences) for 30 min at 4° C. Cells were then washed and analyzed using BD FACScan. Fluorescence intensity was normalized to each respective isotype control antibody and data were analyzed with CellQuest® (BD Biosciences). Dead cells were excluded by gating on forward/side scatter. Marker expression was recorded either as percent positive of the absolute count of total T cells, or by median fluorescence intensity if the control and marker populations overlapped.

peripheral leukocytes [4] = experiment: Alkaline comet assay with and without hOgg1 incubation, DSS colitis; format: in vivo, mouse
Text: Blood collection. […] Identical blood samples were used for genotoxic endpoints as well as for cytokine expression.
Alkaline comet assay. […] Frozen blood was further diluted 1:15 in PBS before further preparation.
Determination of oxidative DNA damage. The enzyme hOgg1-modified comet assay was used for determination of oxidative DNA damage (25). […] (New England Biolabs, Ipswich, Mass.).

[5] = test system: normochromatic erythrocytes; experiment: Micronucleus assay after cytokine injection; format: in vivo, mouse; conditions: 48 hours post-injection compared to before injection
Method: In vivo micronucleus assay. Micronucleus formation was determined in normochromatic erythrocytes as micronucleated normochromatic erythrocytes per 1000 normochromatic erythrocytes as described previously (1, 8).
Injection of cytokines. […] Control animals received vehicle only.

peripheral leukocytes [6] = conditions: mouse, in vivo
Method: Alkaline comet assay. To detect DNA strand breaks, as well as alkali labile sites in DNA, the alkaline comet assay was performed as described elsewhere (4). Frozen blood or single cell suspensions were thawed on ice and further diluted 1:15 in PBS before further sample preparation. After lysis and electrophoresis, gels were stained with SYBR Gold (Molecular Probes) and visualized under a fluorescent microscope (Olympus Ax70, Tokyo, Japan) at 10× magnification. Comet images were captured and analyzed with the CASP image analysis program (http://casp.sourceforge.net). The olive tail moment, which represents both tail length and fraction of DNA in the tail, was used for data collection and analysis, in which apoptotic cells were excluded under previously proposed criteria (4).
Injection of cytokines. Mouse TNF-α (Sigma) and/or mouse IL-1β (Sigma) were injected via the tail vein at 500 ng/mouse and 100 ng/mouse, respectively, dissolved in saline. Control animals received vehicle only. Peripheral blood was collected at 1 hr, 2 hrs, 4 hrs, and 24 hrs after injection for genotoxicity assays.

| Molecule | Mutagenicity / direct genotoxicity of DSS itself [1] | Percentage of cells positive for γ-H2AX nuclear foci (peripheral leukocytes [2]; after the first 7 day acute DSS treatment vs non-treated, p<0.01) | Percentage of cells positive for γ-H2AX nuclear foci (peripheral leukocytes [2]; later cycles until end of treatment vs non-treated, p<0.05) | Micronucleus formation in erythroblasts (toxicity of inflammation) (erythroblasts) | 8-oxoguanine and nitrotyrosine positive peripheral leukocytes (peripheral leukocytes [3]) | Mortality (mice; after three cycles of DSS treatment, wildtype mice) | Start of rectal bleeding (mice; cycle 1 of 3% DSS treatment) [days] | Proportion of activated (CD69+, CD44+) T-cells, Atm−/− vs wildtype mice (peripheral blood T-cells) | Mean olive tail moment (DNA single and double strand breaks, alkali-labile sites) (peripheral leukocytes [4]; DSS treated vs non-treated mice, end of each cycle, p<0.01) | Mean olive tail moment with hOgg1 incubation (oxidative base damage) (peripheral leukocytes [4]; after treatment cycles, treated vs hOgg1 incubated non-treated mice, p<0.05) | Micronuclei formation in circulating normochromatic erythrocytes [5] | Sufficiency to induce genotoxicity to peripheral leukocytes (peripheral leukocytes [6]) | Time post-injection within which DNA damage was repaired (peripheral leukocytes [6]) [h] |
| --- | --- | --- | --- | --- | --- | --- | --- | --- | --- | --- | --- | --- | --- |
| dextran sulfate sodium [DSS] | not directly genotoxic; also recorded: not a mutagen nor genotoxic | increased dramatically | remained elevated over non-treated animals until end of treatment | evident as early as after the acute 7 day treatment | significant increase in both 8-oxoguanine and nitrotyrosine | no mortalities were observed | 4 | significantly larger proportion of these T-cells are activated | significantly higher olive tail moments at the end of each cycle | higher when incubated with hOgg1 after treatment cycles |  |  |  |
| TNF-α |  |  |  |  |  |  |  |  |  |  | minimally yet significantly elevated | sufficient to induce genotoxicity | ≤ 24 |
| IL-1β: mouse IL-1β (Sigma) injected via the tail vein at 100 ng/mouse (protein, UniProt P10749 118-269, looked up) Interleukin-1 beta: VPIRQLHYRLRDEQQKSLVLSDPYELKALHLNGQNINQQVIFSMSFVQGEPSNDKIPVALGLKGKNLYLSCVMKDGTPTLQLESVDPKQYPKKKMEKRFVFNKIEVKSKVEFESAEFPNWYISTSQAEHKPVFLGNNSGQDIIDFTMESVSS |  |  |  |  |  |  |  |  |  |  |  |  | ≤ 24 |
